In patent publication US11197914B2, “GLP-1R/GCGR dual target agonist polypeptide for treatment of fatty liver diseases, hyperlipemia and arteriosclerosis” (Shenzhen Turier Biotech Co., Ltd., priority 2016, dated 2021):
*1 amine or outer side, *2 acyl side, *3 side chain or, on linkers, in order; H or OH if unused. Primed or numbered codes have the meaning given here. Where no end group is shown, it is not given here. Side-chain parts run from the residue outwards. [ ]: non-standard residue; d: D form. The star is where a group is joined. C18 diacid = O=C(O)CCCCCCCCCCCCCCCCC(=O)*; C16 diacid = O=C(O)CCCCCCCCCCCCCCC(=O)*; γGlu = O=C(O)[C@H](CCC(=O)[*:2])N[*:1]; Stearoyl = CCCCCCCCCCCCCCCCCC(=O)*; Palmitoyl = CCCCCCCCCCCCCCCC(=O)*; Nle = CCCC[C@H](N)C(=O)O; PEG2′ = not defined here; Aib = CC(C)(N)C(=O)O

Tested on: Hepatic stellate cell strain LX-2
Assay: In vitro inhibition of hepatic fibrosis: expression of LX-2 cell activation marker α-SMA (Western Blot, α-SMA/β-actin)
Assay type: cell-based, human
Settings: LX-2 cells; for Relative expression of α-SMA (α-SMA/β-actin, %): 48 hours, negative control = 100%; for Effect on expression of α-SMA (in words): 1 μM and 5 μM
Protocol: Hepatic stellate cell strain LX-2 was selected to study and observe the effect of different doses of test substances on the expression of LX-2 cell activation marker […]. Hepatic stellate cell LX-2 was laid on 35 mm cell culture plate, cultured with DMEM (high glucose)+10% FBS+1% double-antibody culture medium (Thermo Fisher), placed overnight when the cells grew to 70% convergence at 37° C. and under the condition of 5% CO2, and treated with the above compounds 1-37 (dissolved in PBS) for 48 hours the next day morning to extract cell protein, carry out Western Blot, and take β-actin as internal reference and analyze the expression quantities of α-SMA and β-actin by a gray level of Image J 1.50i. PBS with the same volume as that in experimental group was added in negative control. […] The integrating gray level of α-SMA/β-actin in the negative control group was 100% to analyze the in vitro inhibition activity of hepatic fibrosis of tested polypeptide.

| Substance | Relative expression of α-SMA (α-SMA/β-actin, %) (1 μM) | also measured |
| --- | --- | --- |
| His-(D-Ser)-Gln-Gly-Thr-Phe-Thr-Ser-Asp-Tyr-Ser-Lys(PEG2-PEG2-γGlu-CO(CH2)16CO2H)-Lys-Leu-Asp-Aib-Arg-Arg-Ala-Gln-Asp-Phe-Val-Gln-Trp-Leu-Met-Asn-Thr-Gly-Gly-Pro-Ser-Ser-Gly-Ala-Pro-Pro-Pro-Ser-NH2 (H[dS]QGTFTSDYSK([PEG2′-PEG2′-γGlu-C18 diacid])KLD[Aib]RRAQDFVQWLMNTGGPSSGAPPPS-NH2) [Compound 20] | 68.39% | Inhibition of LX-2 cell activation marker α-SMA (in words, from Table 2): obviously reduce |
| His-(D-Ser)-Gln-Gly-Thr-Phe-Thr-Ser-Asp-Tyr-Ser-Lys-Tyr-Leu-Asp-Glu-Lys-Ala-Ala-Lys(PEG2-PEG2-γGlu-CO(CH2)14CH3)-Glu-Phe-Ile-Glu-Trp-Leu-Leu-Asn-Gly-Gly-Pro-Ser-Ser-Gly-Ala-Pro-Pro-Pro-Ser-NH2 (H[dS]QGTFTSDYSKYLDEKAAK([PEG2′-PEG2′-γGlu-Palmitoyl])EFIEWLLNGGPSSGAPPPS-NH2) [Compound 29] | 89.36% |  |
| His-Aib-Gln-Gly-Thr-Phe-Thr-Ser-Asp-Lys(PEG2-PEG2-γGlu-CO(CH2)14CH3)-Ser-Lys-Tyr-Leu-Asp-Glu-Arg-Arg-Ala-Gln-Asp-Phe-Val-Gln-Trp-Leu-Leu-Asp-Gly-Gly-Pro-Ser-Ser-Gly-Ala-Pro-Pro-Pro-Ser-NH2 (H[Aib]QGTFTSDK([PEG2′-PEG2′-γGlu-Palmitoyl])SKYLDERRAQDFVQWLLDGGPSSGAPPPS-NH2) [Compound 16] | 48.88% | Inhibition of LX-2 cell activation marker α-SMA (in words, from Table 2): obviously reduce; Effect on expression of α-SMA (in words) (0.1 μM): reduce the expression of α-SMA under all concentrations; Relative expression of α-SMA (α-SMA/β-actin, %) (0.1 μM): 65.32%; Relative expression of α-SMA (α-SMA/β-actin, %) (5 μM): 40.35% |
| His-(D-Ser)-Gln-Gly-Thr-Phe-Thr-Ser-Asp-Tyr-Ser-Lys-Tyr-Leu-Asp-Lys(PEG2-PEG2-CO(CH2)16CO2H)-Arg-Arg-Ala-Gln-Asp-Phe-Val-Gln-Trp-Leu-Met-Asn-Thr-Gly-Gly-Pro-Ser-Ser-Gly-Ala-Pro-Pro-Pro-Ser-NH2 (H[dS]QGTFTSDYSKYLDK([PEG2′-PEG2′-C18 diacid])RRAQDFVQWLMNTGGPSSGAPPPS-NH2) [Compound 35] | 61.28% | Inhibition of LX-2 cell activation marker α-SMA (in words, from Table 2): obviously reduce |
| His-Aib-Gln-Gly-Thr-Phe-Thr-Ser-Asp-Lys(PEG2-PEG2-γGlu-CO(CH2)16CH3)-Ser-Lys-Tyr-Leu-Asp-Glu-Arg-Arg-Ala-Gln-Asp-Phe-Val-Gln-Trp-Leu-Leu-Asp-Gly-Gly-Pro-Ser-Ser-Gly-Ala-Pro-Pro-Pro-Ser-NH2 (H[Aib]QGTFTSDK([PEG2′-PEG2′-γGlu-Stearoyl])SKYLDERRAQDFVQWLLDGGPSSGAPPPS-NH2) [Compound 14] | 92.80% |  |
| His-Aib-Gln-Gly-Thr-Phe-Thr-Ser-Asp-Lys(PEG2-PEG2-γGlu-CO(CH2)14CH3)-Ser-Lys-Tyr-Leu-Asp-Aib-Arg-Arg-Ala-Gln-Asp-Phe-Val-Gln-Trp-Leu-Leu-Asp-Gly-Gly-Pro-Ser-Ser-Gly-Ala-Pro-Pro-Pro-Ser-NH2 (H[Aib]QGTFTSDK([PEG2′-PEG2′-γGlu-Palmitoyl])SKYLD[Aib]RRAQDFVQWLLDGGPSSGAPPPS-NH2) [Compound 8] | 80.25% |  |
| His-(D-Ser)-Gln-Gly-Thr-Phe-Thr-Ser-Asp-Lys(PEG2-PEG2-γGlu-CO(CH2)16CO2H)-Ser-Lys-Tyr-Leu-Asp-Aib-Arg-Arg-Ala-Gln-Asp-Phe-Val-Gln-Trp-Leu-Met-Asn-Thr-Gly-Gly-Pro-Ser-Ser-Gly-Ala-Pro-Pro-Pro-Ser-NH2 (H[dS]QGTFTSDK([PEG2′-PEG2′-γGlu-C18 diacid])SKYLD[Aib]RRAQDFVQWLMNTGGPSSGAPPPS-NH2) [Compound 5] | 67.94% | Inhibition of LX-2 cell activation marker α-SMA (in words, from Table 2): obviously reduce; Effect on expression of α-SMA (in words) (0.1 μM): reduce the expression of α-SMA under all concentrations; Relative expression of α-SMA (α-SMA/β-actin, %) (0.1 μM): 66.04%; Relative expression of α-SMA (α-SMA/β-actin, %) (5 μM): 33.45% |
| His-(D-Ser)-Gln-Gly-Thr-Phe-Thr-Ser-Asp-Tyr-Ser-Lys-Tyr-Leu-Asp-Glu-Lys-Ala-Ala-Lys(PEG2-PEG2-γGlu-CO(CH2)16CO2H)-Glu-Phe-Ile-Glu-Trp-Leu-Leu-Asn-Gly-Gly-Pro-Ser-Ser-Gly-Ala-Pro-Pro-Pro-Ser-NH2 (H[dS]QGTFTSDYSKYLDEKAAK([PEG2′-PEG2′-γGlu-C18 diacid])EFIEWLLNGGPSSGAPPPS-NH2) [Compound 26] | 94.44% |  |
| His-(D-Ser)-Gln-Gly-Thr-Phe-Thr-Ser-Asp-Tyr-Ser-Lys-Tyr-Leu-Asp-Lys(PEG2-PEG2-γGlu-CO(CH2)14CH3)-Arg-Arg-Ala-Gln-Asp-Phe-Val-Gln-Trp-Leu-Nle-Asn-Thr-Gly-Gly-Pro-Ser-Ser-Gly-Ala-Pro-Pro-Pro-Ser-NH2 (H[dS]QGTFTSDYSKYLDK([PEG2′-PEG2′-γGlu-Palmitoyl])RRAQDFVQWL[Nle]NTGGPSSGAPPPS-NH2) [Compound 37] | 42.45% |  |
| His-(D-Ser)-Gln-Gly-Thr-Phe-Thr-Ser-Asp-Tyr-Ser-Lys-Tyr-Leu-Asp-Ser-Lys(PEG2-PEG2-γGlu-CO(CH2)16CH3)-Ala-Ala-His-Asp-Phe-Val-Glu-Trp-Leu-Leu-Arg-Ala-NH2 (H[dS]QGTFTSDYSKYLDSK([PEG2′-PEG2′-γGlu-Stearoyl])AAHDFVEWLLRA-NH2) [Compound 25] | 93.34% |  |
| His-(D-Ser)-Gln-Gly-Thr-Phe-Thr-Ser-Asp-Tyr-Ser-Lys-Tyr-Leu-Asp-Glu-Lys-Ala-Ala-Lys(PEG2-PEG2-γGlu-CO(CH2)16CH3)-Glu-Phe-Ile-Glu-Trp-Leu-Leu-Arg-Ala-NH2 (H[dS]QGTFTSDYSKYLDEKAAK([PEG2′-PEG2′-γGlu-Stearoyl])EFIEWLLRA-NH2) [Compound 24] | 82.42% |  |
| His-(D-Ser)-Gln-Gly-Thr-Phe-Thr-Ser-Asp-Tyr-Ser-Lys-Tyr-Leu-Asp-Glu-Lys-Ala-Ala-Lys(PEG2-PEG2-γGlu-CO(CH2)16CH3)-Glu-Phe-Ile-Glu-Trp-Leu-Leu-Asn-Gly-Gly-Pro-Ser-Ser-Gly-Ala-Pro-Pro-Pro-Ser-NH2 (H[dS]QGTFTSDYSKYLDEKAAK([PEG2′-PEG2′-γGlu-Stearoyl])EFIEWLLNGGPSSGAPPPS-NH2) [Compound 28] | 87.62% |  |
| His-(D-Ser)-Gln-Gly-Thr-Phe-Thr-Ser-Asp-Tyr-Ser-Lys-Tyr-Leu-Asp-Aib-Lys(PEG2-PEG2-γGlu-CO(CH2)14CH3)-Arg-Ala-Gln-Asp-Phe-Val-Gln-Trp-Leu-Met-Asn-Thr-Gly-Gly-Pro-Ser-Ser-Gly-Ala-Pro-Pro-Pro-Ser-NH2 (H[dS]QGTFTSDYSKYLD[Aib]K([PEG2′-PEG2′-γGlu-Palmitoyl])RAQDFVQWLMNTGGPSSGAPPPS-NH2) [Compound 33] | 95.45% |  |
| His-Aib-Gln-Gly-Thr-Phe-Thr-Ser-Asp-Lys(PEG2-PEG2-γGlu-CO(CH2)14CO2H)-Ser-Lys-Tyr-Leu-Asp-Glu-Arg-Arg-Ala-Gln-Asp-Phe-Val-Gln-Trp-Leu-Leu-Asp-Gly-Gly-Pro-Ser-Ser-Gly-Ala-Pro-Pro-Pro-Ser-NH2 (H[Aib]QGTFTSDK([PEG2′-PEG2′-γGlu-C16 diacid])SKYLDERRAQDFVQWLLDGGPSSGAPPPS-NH2) [Compound 13] | 97.93% |  |
| His-Aib-Gln-Gly-Thr-Phe-Thr-Ser-Asp-Lys(PEG2-PEG2-γGlu-CO(CH2)16CO2H)-Ser-Lys-Tyr-Leu-Asp-Glu-Arg-Arg-Ala-Gln-Asp-Phe-Val-Gln-Trp-Leu-Leu-Asp-Gly-Gly-Pro-Ser-Ser-Gly-Ala-Pro-Pro-Pro-Ser-NH2 (H[Aib]QGTFTSDK([PEG2′-PEG2′-γGlu-C18 diacid])SKYLDERRAQDFVQWLLDGGPSSGAPPPS-NH2) [Compound 15] | 77.29% |  |
| His-(D-Ser)-Gln-Gly-Thr-Phe-Thr-Ser-Asp-Tyr-Ser-Lys-Tyr-Leu-Asp-Aib-Lys(PEG2-PEG2-γGlu-CO(CH2)16CO2H)-Arg-Ala-Gln-Asp-Phe-Val-Gln-Trp-Leu-Met-Asn-Thr-Gly-Gly-Pro-Ser-Ser-Gly-Ala-Pro-Pro-Pro-Ser-NH2 (H[dS]QGTFTSDYSKYLD[Aib]K([PEG2′-PEG2′-γGlu-C18 diacid])RAQDFVQWLMNTGGPSSGAPPPS-NH2) [Compound 7] | 73.52% |  |
| His-Aib-Gln-Gly-Thr-Phe-Thr-Ser-Asp-Lys(PEG2-PEG2-γGlu-CO(CH2)16CH3)-Ser-Lys-Tyr-Leu-Asp-Aib-Arg-Arg-Ala-Gln-Asp-Phe-Val-Gln-Trp-Leu-Leu-Asp-Gly-Gly-Pro-Ser-Ser-Gly-Ala-Pro-Pro-Pro-Ser-NH2 (H[Aib]QGTFTSDK([PEG2′-PEG2′-γGlu-Stearoyl])SKYLD[Aib]RRAQDFVQWLLDGGPSSGAPPPS-NH2) [Compound 12] | 72.99% |  |
| His-(D-Ser)-Gln-Gly-Thr-Phe-Thr-Ser-Asp-Tyr-Ser-Lys(PEG2-PEG2-γGlu-CO(CH2)14CH3)-Lys-Leu-Asp-Aib-Arg-Arg-Ala-Gln-Asp-Phe-Val-Gln-Trp-Leu-Met-Asn-Thr-Gly-Gly-Pro-Ser-Ser-Gly-Ala-Pro-Pro-Pro-Ser-NH2 (H[dS]QGTFTSDYSK([PEG2′-PEG2′-γGlu-Palmitoyl])KLD[Aib]RRAQDFVQWLMNTGGPSSGAPPPS-NH2) [Compound 1] | 75.26% |  |
